Laboratory results published in patent publication US9387221B2, “SDF-1 binding nucleic acids and the use thereof in cancer treatment” (NOXXON Pharma AG, priority 2010, dated 2016).

Columns and labels:
CXCR4 [1] = target: CXCR4 (Mus musculus, UniProt P70658); settings: GBM mouse xenograft, irradiation; cited from earlier work
CXCR4 [2] = target: CXCR4 (Homo sapiens, UniProt P61073); settings: MM cells in vivo, CXCR4 blockade; cited from earlier work
stromal MS-5 cells = experiment: Viability of stromal MS-5 cells in the coculture; type: cell-based, murine; settings: data not shown
Description: The murine stromal cell line MS-5 (ACC 441) was purchased from the DSMZ, the Multiple Myeloma cell line RPMI8226 (CCL-155) was purchased from the ATCC. The Multiple Myeloma cell line RPMI8226 was maintained in RPMI medium 1640 GlutaMAX (Invitrogen) supplemented with 10% FBS (Biochrom) and penicillin-streptomycin, the MS-5 cells were cultured in MEM alpha GlutaMAX (Invitrogen) with 10% FBS and penicillin-streptomycin. For chemosensitization coculture experiments stromal MS-5 cells were seeded the day before onto 24-well plates (the inner eight wells) at a concentration of 8×10^4/mL/well in MEM alpha GlutaMAX medium (+10% FBS) and incubated at 37° C. in 5% CO2. The confluent stromal cell layer was washed and 0.5 mL RPMI medium 1640 (+1% FBS) was added to the wells. SDF-1 binding […] NOX-A12 or revNOX-A12 was subsequently added to the wells to a final concentration of 100 nM and incubated for four hours. 3.5×10^5 RPMI8226 cells in RPMI medium 1640 (+1% FBS) were added to the stromal cell layer. Four hours later, 1 μ[…] (Sigma Aldrich) was added to the cells when indicated. After 40 hours of incubation the cells were collected in 15 mL tubes, first the supernatant was harvested and then the attached cells were trypsinized including MS-5 cells. […] Cell viability and cell number were determined by Flow Cytometry using the Guava EasyCyte 6HT/2L (Millipore).

RPMI-8226 MM cells = experiment: Chemosensitization coculture of RPMI-8226 MM cells with stromal MS-5 cells; type: cell-based; settings: 100 nM NOX-A12, 1 μM F-ara-A, 40 hours
Description: In order to mimic the in vivo interaction of the BM microenvironment with leukemia cells, an in vitro coculture system with murine BM stromal MS-5 cells and the multiple myeloma (abbr. MM) cell line RPMI 8226 was established. Aim of the experiment was to show whether SDF-1 binding […] NOX-A12 sensitizes MM cells in coculture with stromal cells to effects of chemotherapeutic agents. Stromal MS-5 cells secreting SDF 1 were incubated with SDF-1 binding […] NOX-A12 or the non-functional revNOX-A12. The MM cell line RPMI-8226 was added to the confluent stromal cell layer. The cells were then incubated with the chemotherapeutic agent F ara A (Fludarabine) for 40 hours. Cell Viability viability was measured. The murine stromal cell line MS-5 (ACC 441) was purchased from the DSMZ, the Multiple Myeloma cell line RPMI8226 (CCL-155) was purchased from the ATCC. The Multiple Myeloma cell line RPMI8226 was maintained in RPMI medium 1640 GlutaMAX (Invitrogen) supplemented with 10% FBS (Biochrom) and penicillin-streptomycin, the MS-5 cells were cultured in MEM alpha GlutaMAX (Invitrogen) with 10% FBS and penicillin-streptomycin. […] Cell viability and cell number were determined by Flow Cytometry using the Guava EasyCyte 6HT/2L (Millipore).

Chain of CXCR4 (Mus musculus, UniProt P70658) (P70658 whole entry): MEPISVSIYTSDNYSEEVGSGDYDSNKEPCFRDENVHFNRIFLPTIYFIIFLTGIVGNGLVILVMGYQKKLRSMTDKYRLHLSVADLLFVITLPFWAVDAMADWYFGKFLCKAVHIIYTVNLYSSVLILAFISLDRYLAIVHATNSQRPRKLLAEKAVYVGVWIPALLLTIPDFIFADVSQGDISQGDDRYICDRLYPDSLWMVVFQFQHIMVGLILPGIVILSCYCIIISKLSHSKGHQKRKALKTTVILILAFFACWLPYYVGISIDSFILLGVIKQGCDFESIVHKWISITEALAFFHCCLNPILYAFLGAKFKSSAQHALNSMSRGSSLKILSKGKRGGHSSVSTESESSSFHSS
Chain of CXCR4 (Homo sapiens, UniProt P61073) (P61073 whole entry, species assumed): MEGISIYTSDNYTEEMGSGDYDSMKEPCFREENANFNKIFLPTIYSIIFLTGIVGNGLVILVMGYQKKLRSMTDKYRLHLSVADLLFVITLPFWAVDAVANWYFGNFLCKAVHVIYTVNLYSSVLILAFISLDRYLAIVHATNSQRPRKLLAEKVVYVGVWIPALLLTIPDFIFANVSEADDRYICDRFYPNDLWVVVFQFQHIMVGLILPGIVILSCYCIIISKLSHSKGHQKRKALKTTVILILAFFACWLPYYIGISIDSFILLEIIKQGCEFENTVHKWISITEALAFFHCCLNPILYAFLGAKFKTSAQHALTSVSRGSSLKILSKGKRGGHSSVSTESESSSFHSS

c1cc(CN2CCCNCCNCCCNCC2)ccc1CN1CCCNCCNCCCNCC1 [AMD3100]
influx of BMDCs in the irradiated tumor (CXCR4 [1]): prevented the influx of BMDCs in the irradiated tumor
tumor reduction induced by bortezomib (CXCR4 [2]): enhanced tumor reduction induced by bortezomib

Nc1nc(F)nc2c1ncn2[C@@H]1O[C@H](CO)[C@@H](O)[C@@H]1O [F-ara-A, Fludarabine, reference compound]
viability of stromal MS-5 cells (stromal MS-5 cells): neither affected
cell viability of RPMI-8226 cells cocultured with stromal MS-5 cells (RPMI-8226 MM cells): no significant effect
